Laboratory results as given in paper PMC12259270, “Sensory neuron–expressed FGF13 controls nociceptive signaling in diabetic neuropathy models” (The Journal of Clinical Investigation, 2025).
Residues, ends and D or L forms follow the SMILES beside them. *: point of attachment. Cbz = O=C(OCc1ccccc1)*; OtBu = CC(C)(C)O*

Biological target: T1, human Nav1.7 (Homo sapiens, UniProt Q15858)
T1 construct: expressed in transfected cells; host or cells: HEK293 stably expressing human Nav1.7
Assay: Whole-cell patch-clamp, HEK293 cells stably expressing human Nav1.7 with GFP or FGF13-GFP
Assay type: cell-based
Settings: for Time constant of repriming, Mean: Fig 1L, PW164; for Activation / Long-term inactivation, 2nd Pulse / Long-term inactivation, 3rd Pulse / Long-term inactivation, 4th Pulse / Peak Density / Steady state inactivation / Tau (τ): HEK293 Nav1.7
Method: Whole-cell patch clamp electrophysiology
HEK293-Nav1.7 cells, HEK293 stably expressing human Nav1.6 (HEK-Nav1.6), HEK293 stably expressing human Nav1.5 (HEK-Nav1.5), human hIPSC-derived sensory neurons (RealDRGTM from Anatomic Incorporated 1020F1-1M) and donor-derived DRG neurons were plated at low density on glass coverslips and processed for whole-cell patch clamp electrophysiology in voltage-clamp and/or current clamp mode. Whole-cell patch electrophysiological experiments were conducted following previously published studies (26). Current densities were obtained by dividing INa amplitude by membrane capacitance. Current –voltage relationships were generated by plotting current density as a function of the […]. Conductance (G Na) was calculated by the […]
where INa is the current amplitude at voltage Vm, and Erev is the Na+ reversal potential.
Activation curves were derived by plotting normalized GNa as a function of test potential and fitted using […]
Where GNa,Max is the maximum conductance, Va is the membrane potential of half-maximal activation, Em is the membrane voltage and k is the slope factor. For steady -state inactivation, normalized current amplitude (INa/INa,Max) at the test potential was plotted as a function of prepulse potential (Vm) and fitted using the […]
Where Vh is the potential of half-maximal inactivation, E m is the membrane voltage, and k is the slope factor.
Transient INa inactivation decay was estimated with the standard exponential equation. Inactivation time constant (tau, τ) was fitted with the following equation: […]
where I(t) is the amplitude of the current at time t and Iss is the steady-state current during a single voltage-step.
The goodness of fitting was determined by correlation coefficient (R), and the cutoff of R was set at 0.85. To observe effects on long-term inactivation (LTI), a four-step protocol was employed during which cells were subjected to four 0 mV, 20 ms depolarization pulses separated by −90 mV, 40 ms recovery intervals. To control for various cell sizes, the current densities were calculated by dividing INa peak current amplitude/membrane capacitance (Cm). To represent the fraction of channels entering into LTI, the peak INa observed during depolarization cycles 2-4 was normalized to the peak INa observed during depolarization cycle 1 (INa/INa,Cycle 1) and plotted as a function of the depolarization cycle.
The cumulative (frequency-dependent) use-dependency was determined by applying 20 pulses with a depolarization to −10 mV (50 ms duration) and 50 ms recovery intervals with a train of 20 pulses at 10 Hz from a holding potential at -70 mV. The current pulses were normalized to the first reco rded pulse and the currents at the 2nd to 20th pulses were compared. The same train was used to record use-dependency at various frequencies […]
The rate of recovery from inactivation was recorded at -80 mV with a standard repriming voltage protocol.
The cells were prepulsed to -20 mV for 20 ms to inactivate all currents, then driven back to the recovery potential (Vrec) for increasing recovery durations before the test pulse to 0 mV. The maximum pulse rate was 0.5 Hz. The […]
follows previous publications (16). The time constants were estimated from single exponential decay to time courses measured at recovery potentials ranging from -140 to -60 mV with the protocol as mentioned above.
Electrophysiological Recordings
HEK293 cells: Electrophysiological recordings in HEK293 stably expressing Nav1.7 (HEK-Nav1.7), Nav1.5 (HEK-Nav1.5) or Nav1.6 (HEK-Nav1.6) were performed at room temperature using a MultiClamp 700B or an Axopatch 200B amplifier (Molecular Devices) after incubating coverslips for 60 minutes either with 0.1% DMSO or 50 μM PW164 or ZL192 in the extracellular solution. The composition of recording solutions consisted of the […]
following salts: extracellular (mM): 140 NaCl, 3 KCl, 1 MgCl2, 1 CaCl2, 10 HEPES, 10 glucose, pH 7.3; […]
intracellular (mM): 130 CH3O3 SCs, 1 EGTA, 10 NaCl, 10 HEPES, pH 7.3. […]

T1 sequence (Q92913 1-192 partner limits assumed): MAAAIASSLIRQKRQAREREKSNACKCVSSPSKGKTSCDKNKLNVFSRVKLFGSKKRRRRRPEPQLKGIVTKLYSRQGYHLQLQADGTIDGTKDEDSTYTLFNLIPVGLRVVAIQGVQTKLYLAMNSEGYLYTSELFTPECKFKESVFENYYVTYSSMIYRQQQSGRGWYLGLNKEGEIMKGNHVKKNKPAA
T1 sequence (Q15858 1-1977 isoform Q15858-3): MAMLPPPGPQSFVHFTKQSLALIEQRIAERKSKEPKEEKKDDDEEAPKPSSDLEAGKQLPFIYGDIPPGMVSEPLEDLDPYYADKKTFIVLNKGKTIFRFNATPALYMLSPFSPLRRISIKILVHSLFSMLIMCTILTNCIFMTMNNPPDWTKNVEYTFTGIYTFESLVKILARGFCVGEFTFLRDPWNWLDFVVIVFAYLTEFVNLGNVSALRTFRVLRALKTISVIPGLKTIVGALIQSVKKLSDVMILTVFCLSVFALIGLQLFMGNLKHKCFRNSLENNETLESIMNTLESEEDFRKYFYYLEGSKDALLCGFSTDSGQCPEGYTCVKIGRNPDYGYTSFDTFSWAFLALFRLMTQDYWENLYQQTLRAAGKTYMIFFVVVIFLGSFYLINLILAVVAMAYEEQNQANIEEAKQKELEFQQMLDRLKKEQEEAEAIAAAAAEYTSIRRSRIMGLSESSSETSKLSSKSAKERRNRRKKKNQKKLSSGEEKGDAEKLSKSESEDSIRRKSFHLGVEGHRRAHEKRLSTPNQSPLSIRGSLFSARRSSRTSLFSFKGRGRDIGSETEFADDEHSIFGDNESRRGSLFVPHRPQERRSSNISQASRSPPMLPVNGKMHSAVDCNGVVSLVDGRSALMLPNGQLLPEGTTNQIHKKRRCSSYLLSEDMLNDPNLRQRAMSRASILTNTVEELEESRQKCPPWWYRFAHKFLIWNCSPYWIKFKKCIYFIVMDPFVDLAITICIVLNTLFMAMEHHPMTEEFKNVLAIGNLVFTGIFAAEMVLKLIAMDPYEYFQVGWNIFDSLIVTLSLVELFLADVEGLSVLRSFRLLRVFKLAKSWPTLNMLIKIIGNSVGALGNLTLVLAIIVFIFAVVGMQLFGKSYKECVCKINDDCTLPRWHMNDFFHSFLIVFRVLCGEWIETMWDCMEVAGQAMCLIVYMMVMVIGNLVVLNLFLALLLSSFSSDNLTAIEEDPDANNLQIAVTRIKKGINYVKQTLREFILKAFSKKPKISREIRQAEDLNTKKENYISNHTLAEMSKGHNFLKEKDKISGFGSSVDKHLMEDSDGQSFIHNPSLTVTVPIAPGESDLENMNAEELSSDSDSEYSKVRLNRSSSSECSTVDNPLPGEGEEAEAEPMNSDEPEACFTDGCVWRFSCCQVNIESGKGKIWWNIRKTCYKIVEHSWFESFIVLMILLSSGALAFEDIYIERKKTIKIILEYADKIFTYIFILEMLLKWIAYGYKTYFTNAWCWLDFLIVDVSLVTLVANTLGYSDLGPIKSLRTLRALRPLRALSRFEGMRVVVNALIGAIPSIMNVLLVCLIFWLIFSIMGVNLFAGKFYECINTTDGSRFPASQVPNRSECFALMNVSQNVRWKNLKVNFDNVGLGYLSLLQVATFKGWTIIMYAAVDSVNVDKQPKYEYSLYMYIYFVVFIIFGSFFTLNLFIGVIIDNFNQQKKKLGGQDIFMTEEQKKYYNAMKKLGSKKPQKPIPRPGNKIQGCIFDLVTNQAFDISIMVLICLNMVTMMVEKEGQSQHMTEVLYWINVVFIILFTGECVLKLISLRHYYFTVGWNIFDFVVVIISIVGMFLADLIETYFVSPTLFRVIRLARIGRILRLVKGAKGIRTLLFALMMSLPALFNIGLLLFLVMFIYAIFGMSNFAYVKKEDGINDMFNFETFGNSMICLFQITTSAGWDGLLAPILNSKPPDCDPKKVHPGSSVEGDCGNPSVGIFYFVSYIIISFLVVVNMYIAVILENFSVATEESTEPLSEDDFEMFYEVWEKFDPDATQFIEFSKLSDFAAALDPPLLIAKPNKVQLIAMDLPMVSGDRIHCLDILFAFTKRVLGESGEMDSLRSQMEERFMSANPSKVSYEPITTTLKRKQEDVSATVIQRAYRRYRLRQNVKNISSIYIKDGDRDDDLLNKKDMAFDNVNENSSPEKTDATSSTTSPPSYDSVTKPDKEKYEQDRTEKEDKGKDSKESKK

For `COC(=O)[C@@H](NC(=O)[C@H](CCC(=O)OC(C)(C)C)NC(=O)[C@H](CC(C)C)NC(=O)[C@@H]1CCCN1C(=O)OCc1ccccc1)C(C)C` [PW164] (Cbz-PLE(OtBu)V-OMe), the “Time constant of repriming, Mean” value (Nav1.7 + FGF13-GFP, recovery potential -100) was 42.57 ms, the “Time constant of repriming, Mean” value (Nav1.7 + FGF13-GFP, recovery potential -120) was 33.57 ms and the “Time constant of repriming, Mean” value (Nav1.7 + FGF13-GFP, recovery potential -140) was 16.96 ms. The “Time constant of repriming, Mean” value (Nav1.7 + GFP, recovery potential -60) was 57.89 ms, the “Time constant of repriming, Mean” value (Nav1.7 + GFP, recovery potential -70) was 65.42 ms and the “Time constant of repriming, Mean” value (Nav1.7 + GFP, recovery potential -80) was 71.67 ms. For the same molecule, the “Time constant of repriming, Mean” value (Nav1.7 + GFP, recovery potential -90) was 61.78 ms, the “Time constant of repriming, Mean” value (Nav1.7 + GFP, recovery potential -100) was 47.69 ms and the “Time constant of repriming, Mean” value (Nav1.7 + GFP, recovery potential -120) was 34.63 ms. For the same molecule, the “Time constant of repriming, Mean” value (Nav1.7 + GFP, recovery potential -140) was 16.6 ms, the Activation (FGF13-GFP + PW164 50 μM) was −19.7 ± 0.9 mV and the “Long-term inactivation, 2nd Pulse” value (FGF13-GFP + PW164 50 μM) was −69.72 ± 5.21 % maximal Na+ current. For the same molecule, the “Long-term inactivation, 3rd Pulse” value (FGF13-GFP + PW164 50 μM) was −60.33 ± 5.60 % maximal Na+ current, the “Long-term inactivation, 4th Pulse” value (FGF13-GFP + PW164 50 μM) was −59.34 ± 4.68 % maximal Na+ current and the Peak Density (FGF13-GFP + PW164 50 μM) was −26.7 ± 3.6 pA/pF. For the same molecule, the Steady state inactivation (FGF13-GFP + PW164 50 μM) was −64.7 ± 2.1 mV, the “Tau (τ)” value (FGF13-GFP + PW164 50 μM) was 0.80 ± 0.03 ms and the Activation (FGF13A GFP (FGF13-1a) + PW164) was −26.91 ± 1.25 mV. The Peak Density (FGF13A GFP (FGF13-1a) + PW164) was −109.1 ± 11.7 pA/pF, the Steady state inactivation (FGF13A GFP (FGF13-1a) + PW164) was −63.11 ± 2.14 mV and the “Tau (τ)” value (FGF13A GFP (FGF13-1a) + PW164) was 1.41 ± 0.06 ms. For the same molecule, the “Long-term inactivation, 2nd Pulse” value (FGF13A-GFP (FGF13-1a) + PW164) was −47.28 ± 4.68 % maximal Na+ current, the “Long-term inactivation, 3rd Pulse” value (FGF13A-GFP (FGF13-1a) + PW164) was −35.27 ± 3.04 % maximal Na+ current and the “Long-term inactivation, 4th Pulse” value (FGF13A-GFP (FGF13-1a) + PW164) was −29.22 ± 4.16 % maximal Na+ current. For the same molecule, the Activation (GFP + PW164 50 μM) was −26.1 ± 0.4 mV, the “Long-term inactivation, 2nd Pulse” value (GFP + PW164 50 μM) was −67.94 ± 3.77 % maximal Na+ current and the “Long-term inactivation, 3rd Pulse” value (GFP + PW164 50 μM) was −62.35 ± 5.35 % maximal Na+ current. The “Long-term inactivation, 4th Pulse” value (GFP + PW164 50 μM) was −60.93 ± 3.90 % maximal Na+ current, the Peak Density (GFP + PW164 50 μM) was −69.2 ± 7.5 pA/pF and the Steady state inactivation (GFP + PW164 50 μM) was −83.5 ± 1.7 mV. For the same molecule, the “Tau (τ)” value (GFP + PW164 50 μM) was 1.48 ± 0.25 ms, the IC50 (HEK-Nav1.7 coexpressing FGF13-GFP, Fig 1F, read-out: IC50, reversal of FGF13-induced increase in INa density) was 6.74 ± 0.5 µM and the “Time constant (ms), Mean (Figure 4J)” value (Nav1.7 + FGF13-GFP, at -60, N 5) was 36.71 ms. The “Time constant (ms), Mean (Figure 4J)” value (Nav1.7 + FGF13-GFP, at -70, N 5) was 42.79 ms, the “Time constant (ms), Mean (Figure 4J)” value (Nav1.7 + FGF13-GFP, at -80, N 5) was 44.71 ms and the “Time constant (ms), Mean (Figure 4J)” value (Nav1.7 + FGF13-GFP, at -90, N 5) was 37.77 ms. The “Time constant (ms), Mean (Figure 4J)” value (Nav1.7 + FGF13-GFP, at -100, N 5) was 28.49 ms, the “Time constant (ms), Mean (Figure 4J)” value (Nav1.7 + FGF13-GFP, at -120, N 5) was 23.55 ms and the “Time constant (ms), Mean (Figure 4J)” value (Nav1.7 + FGF13-GFP, at -140, N 5) was 14.96 ms. The “Time constant (ms), Mean (Figure 4J)” value (Nav1.7 + GFP, at -60, N 6) was 50.23 ms, the “Time constant (ms), Mean (Figure 4J)” value (Nav1.7 + GFP, at -70, N 6) was 52.23 ms and the “Time constant (ms), Mean (Figure 4J)” value (Nav1.7 + GFP, at -80, N 6) was 56.52 ms. The “Time constant (ms), Mean (Figure 4J)” value (Nav1.7 + GFP, at -90, N 6) was 45.93 ms, the “Time constant (ms), Mean (Figure 4J)” value (Nav1.7 + GFP, at -100, N 6) was 35.06 ms and the “Time constant (ms), Mean (Figure 4J)” value (Nav1.7 + GFP, at -120, N 6) was 27.11 ms. The “Time constant (ms), Mean (Figure 4J)” value (Nav1.7 + GFP, at -140, N 6) was 15.6 ms and the “activity on Nav1.7 currents” value (Nav1.7 cells coexpressing FGF13-1a-GFP (FGF13S)) was “inactive”.
